Read-outs that look alike come from different tables or passages of the source.
Experiments:
[1] = tested on: Spodoptera litura Fabricius--Common cutworm; assay: Effect on common cutworm (mortality, leaf immersion); format: in vivo; conditions: second instar larvae, 25° C.; for mortality at 1000 ppm: Spodoptera litura, 72 h; for Mortality (%): 1000 ppm, 72 hours, 4320 min
Description: (§1) 20 parts of a compound of the present invention, 10 parts of Sorpol 355S (made by Toho Chemical Co., Ltd., a surface active agent), 70 parts of xylene were uniformly stirred and mixed to obtain an emulsion. Here, the parts mean parts by weight, which will apply to the following.
Effect on Spodoptera litura Fabricius--Common cutworm
The emulsion of each compound of the present invention prepared according to Formulation Example 1 was diluted with distilled water to a predetermined concentration, and a spreading agent New Gramin, made by Sankyo Co., Ltd.) was then added thereto so that its concentration might be 0.02%. Then, 3leaves of Ipomea batatas were fully immersed in the solution. After drying in air, the leaves were placed in a plastic cup having a diameter of 9 cm and a depth of 4 cm, and 10 second instar larvae of common cutworm were allowed to eat the leaves at 25° C. After 72 hours, mortality was checked.

[2] = tested on: Laodelphax striatellus Fallen--Smaller brown planthopper; assay: Effect on smaller brown planthopper (mortality, treated rice seedlings); format: in vivo; conditions: female adults, 25° C., 48 hours
Description: (§2) Effect on Laodelphax striatellus Fallen--Smaller brown planthopper Each compound of the present invention was dissolved in acetone to prepare an acetone solution having a predetermined concentration, and 3 ml of the acetone solution was applied over a bundle of several rice seedlings (about third leaf stage). After drying in air, the treated seedlings were covered with a metal gauze cylinder, and ten female adults of smaller brown planthopper were introduced into the cylinder. Afterward, this cylinder was placed in a temperature controlled room at 25° C. and after 48 hours, mortality was checked.

[3] = tested on: Myzus persicae Sulzer--Green peach aphid; assay: Effect on green peach aphid (mortality, sprayed eggplant seedlings); format: in vivo; conditions: for mortality at 10 ppm / mortality at 100 ppm: Myzus persicae, 48 h; for Mortality (%): 48 hours
Description: as §1
Effect on Myzus persicae Sulzer--Green peach aphid
The emulsion of each compound of the present invention prepared according to Formulation Example 1 was diluted with distilled water to a predetermined concentration, and a spreading agent (New Gramn, made by Sankyo Co., Ltd.) was then added thereto so that its concentration might be 0.02%. Then, the thus prepared chemical solution was sprayed over eggplant seedlings of 2nd and 3rd plastochrons, on which green peach aphids had been parasitic, and the seedlings were the cultivated in a hothouse. After 48 hours, the number of the alive green peach aphid was counted to calculate mortality.

[4] = tested on: resistant strain of Nepphotettix cincticeptus Unler--Resistant green rice leafhopper; assay: Effect on resistant green rice leafhopper (mortality, treated rice seedlings); format: in vivo; conditions: for mortality at 200 ppm / mortality at 1000 ppm: Nephotettix cincticeps
Description: Effect on resistant strain of Nepphotettix cincticeptus Unler--Resistant green rice leafhopper
as §2, with “Each” for “Effect on Laodelphax striatellus Fallen--Smaller brown planthopper Each”, “resistant green rice leafhopper” for “smaller brown planthopper”, “C.,” for “C.”

[5] = Acute toxicity to mice (oral); conditions: mouse, in vivo; oral (stomach tube); male mice 6 weeks old; 14 days observation
Description: 5-week-old male mice (Crj: CD-1) were purchased and then tamed for 1 week, and so the mice of 6 weeks old were tested. The mice were bred in a breeding chamber having a temperature of 23°±2° C., a humidity of 50±10%, a ventilation frequency of 15 times/hour and a lighting time of 12 hours/day. A solid feed (CE-2, made by Nippon Clea) was given, and as drinking water, tap water was freely given.
Each compound to be tested was Suspended in acetone:corn oil (1:9) by the use of a high-speed homogenizer, and then orally administered forcedly to the mice to be tested through a stomach tube. The amount of the solution to be administered was 0.1 ml with respect to 10 g of weight (10 ml/kg).
One administration group was constituted of 5 mice, and an observation period was 14 days from the administration.

[6] = 200 ppm, female adults, 25° C., 48 hours, read-out: Mortality (%)
[7] = 1000 ppm, female adults, 25° C., 48 hours, read-out: Mortality (%)

SMILES | mortality at 1000 ppm [1] | Mortality (%) ([2]; 200 ppm) | Mortality (%) ([2]; 1000 ppm) | mortality at 10 ppm ([3]; 10 ppm) | mortality at 100 ppm ([3]; 100 ppm) | mortality at 200 ppm [4, 6] | mortality at 1000 ppm [4, 7] | LD50 at 336 h [5] | mortality at 200 ppm ([4]; 48 h) | mortality at 1000 ppm ([4]; 48 h) | Mortality (%) [1] | Mortality (%) ([3]; 10 ppm, 2880 min) | Mortality (%) ([3]; 100 ppm) | Mortality (%) ([4]; 200 ppm, female adults, 25° C., 48 hours) | Mortality (%) ([4]; 1000 ppm, female adults, 25° C., 48 hours)
O=[N+]([O-])N=C1NCCN1CC1CCCO1 (centres unmarked) [Comparative Compound (1), 1-[(tetrahydro-2-furanyl)methyl]-2-(nitroimino)imidazolidine, reference compound] | 0% | 0% | 20% | 0% | 0% | 0% | 30% |  |  |  |  |  |  |  | 
O=[N+]([O-])N=C1NCCN1Cc1ccoc1 [Comparative Compound (2), reference compound] | 0% | 0% | 40% |  |  |  |  |  |  |  |  |  |  |  | 
O=[N+]([O-])C=C1NCCCN1CC1CCOC1 (centres unmarked) [Comparative Compound (3), reference compound] | 0% |  |  |  |  |  |  |  |  |  |  |  |  |  | 
O=[N+]([O-])/N=C1\NCCCN1Cc1ccc(Cl)nc1 [Comparative Compound (4), reference compound] |  |  |  |  |  |  |  | 30 to 100 mg/kg |  |  |  |  |  |  | 
O=[N+]([O-])N=C1NCCCN1CC1CCOC1 (centres unmarked) [Compound No. 1, 1-[(tetrahydro-3-furanyl)methyl]-2-(nitroimino)hexahydropyrimidine] | 70% | 100% | 100% | 100% | 100% |  |  | > 300 mg/kg | 100% | 100% |  |  |  |  | 
CC1CC(CN2CCCNC2=N[N+](=O)[O-])CO1 (centres unmarked) [Compound No. 2, 1-[(2-methyl-4-tetrahydrofuryl)methyl]-2-(nitroimino)hexahydropyrimidine] |  | 100% | 100% | 100% | 100% |  |  | > 500 mg/kg | 100% | 100% |  |  |  |  | 
CC1(C)CC(CN2CCCNC2=N[N+](=O)[O-])CO1 (centres unmarked) [Compound No. 3, 1-[(2,2-dimethyl-4-tetrahydrofuryl)methyl]-2-(nitroimino)hexahydropyrimidine] |  | 100% | 100% | 100% | 100% | 100% | 100% |  |  |  |  |  |  |  | 
O=[N+]([O-])N=C1NCCN1CC1CCOC1 (centres unmarked) [Compound No. 4, 1-[(tetrahydro-3-furanyl)methyl]-2-(nitroimino)imidazolidine] | 100% | 100% | 100% | 67% | 100% | 100% | 100% |  |  |  |  |  |  |  | 
CC1CC(CN2CCNC2=N[N+](=O)[O-])CO1 (centres unmarked) [Compound No. 5, 1-[(2-methyl-4-tetrahydrofuryl)methyl]-2-(nitroimino)imidazolidine] |  | 100% | 100% | 100% | 100% | 100% | 100% |  |  |  |  |  |  |  | 
CC1(C)CC(CN2CCNC2=N[N+](=O)[O-])CO1 (centres unmarked) [Compound No. 6, 1-[(2,2-dimethyl-4-tetrahydrofuryl)methyl]-2-(nitroimino)imidazolidine] |  | 100% | 100% | 82% | 100% | 100% | 100% |  |  |  |  |  |  |  | 
CC(=O)N1CCN(CC2CCOC2)C1=N[N+](=O)[O-] (centres unmarked) [Compound No. 7, 1-(methylcarbonyl)-2-(nitroimino)-3-[(tetrahydro-3-furanyl)methyl]imidazolidine] | 100% | 100% | 100% | 63% | 100% | 100% | 100% |  |  |  |  |  |  |  | 
CC(=O)N1CCCN(CC2CCOC2)C1=N[N+](=O)[O-] (centres unmarked) [Compound No. 8, 1-(methylcarbonyl)-2-(nitroimino)-3-[(tetrahydro-3-furanyl)methyl]hexahydropyrimidine] |  | 100% | 100% | 100% | 100% | 100% | 100% |  |  |  |  |  |  |  | 
CC(C)C(=O)N1CCCN(CC2CCOC2)C1=N[N+](=O)[O-] (centres unmarked) [Compound No. 9, 1-(isopropylcarbonyl)-2-(nitroimino)-3-[(tetrahydro-3-furanyl)methyl]hexahydropyrimidine] |  | 100% | 100% | 86% | 100% | 100% | 100% |  |  |  |  |  |  |  | 
CC(=O)N1CCCN(CC2COC(C)C2)C1=N[N+](=O)[O-] (centres unmarked) [Compound No. 10, 1-(methylcarbonyl)-3-[(2-methyl-4-tetrahydrofuryl)methyl]-2-(nitroimino) hexahydropyrimidine] | 100% | 100% | 100% | 100% | 100% | 100% | 100% |  |  |  |  |  |  |  | 
CCC(=O)N1CCCN(CC2CCOC2)C1=N[N+](=O)[O-] (centres unmarked) [Compound No. 11, 1-(ethylcarbonyl)-2-(nitroimino)-3-[(tetrahydro-3-furanyl)methyl]hexahydropyrimidine] |  | 100% | 100% |  | 100% | 100% | 100% |  |  |  | 70% |  |  |  | 
CCCC(=O)N1CCN(CC2CCOC2)C1=N[N+](=O)[O-] (centres unmarked) [Compound No. 12, 1-(propylcarbonyl)-2-(nitroimino)-3-[(tetrahydro-3-furanyl)methyl]imidazolidine] | 100% | 100% | 100% | 0% | 66% | 100% | 100% |  |  |  |  |  |  |  | 
CCC(=O)N1CCCN(CC2CCOC2)C1=N[N+](=O)[O-] (centres unmarked) [Compound No. 13, 1-propionyl-2-(nitroimino)-3-[(tetrahydro-3-furanyl)methyl]hexahydropyrimidine] |  | 100% | 100% |  |  |  |  |  |  |  | 100% | 27% | 100% | 100% | 100%

Reference: patent publication US5614527A, “Insecticidal tetrahydrofuran-compound” (Mitsui Toatsu Chemicals, Inc., priority 1994, dated 1997)
